Results from US10072021B2, “Compound for inhibiting binding between DX2 protein and P14/ARF protein, and pharmaceutical composition for treating or preventing cancer disease containing same as effective ingredient” (PUSAN NATIONAL UNIVERSITY INDUSTRY-UNIVERSITY COOPERATION …, priority 2014, dated 2018).

Key:
p53-p14/ARF interaction = target: T1, p53-p14/ARF interaction (Homo sapiens, UniProt P04637+Q8N726); assay: GST pull-down assay, selectivity: p53-p14/ARF interaction; assay type: binding; conditions: FIG. 3D, 3E
T1 construct: a p14/ARF fragment (full-length) was ligated into EcoRI and Hind II sites of pGEX-TEV vector; made in house; host or cells: E. coli BL21(DE3) for GST-p14/ARF
Description: (§1) Through GST pull-down assays, more specific binding inhibitors were selected among the previously screened candidate drugs as DX2-p14/ARF binding inhibitors. That is, a p14/ARF fragment (full-length) was ligated into EcoRI and Hind II sites of pGEX-TEV vector, which is a modified vector by adding a TEV protease cleavage site to pGEX-4T1. The recombinant proteins were then expressed in E. coli strain BL21(DE3) as GST-fusion proteins. The proteins were purified by glutathione affinity chromatography.
(§2) To address direct binding between the two proteins, agarose-bead conjugated GST (negative control) or GST-target protein was incubated with cell lysate or recombinant protein in radioimmunoprecipitation assay (RIPA) buffer (NaCl, 25 mM Tris-Cl, 1% NP-40, 1% sodium deoxycholate, 0.1% SDS, protease inhibitor mixture) for 1 hour at a temperature of 4° C. for a reaction.

DX2-p14/ARF binding = target: T2, DX2-p14/ARF binding (Homo sapiens, UniProt Q13155); assay: GST pull-down assay of DX2-p14/ARF binding; conditions: FIG. 2A, 3A, 3D, 3E
T2 construct: made in house; host or cells: E. coli BL21(DE3) for GST-p14/ARF; DX2 from 'cell lysate or recombinant protein'
T2 sequence (Q13155 1-251 isoform Q13155-2): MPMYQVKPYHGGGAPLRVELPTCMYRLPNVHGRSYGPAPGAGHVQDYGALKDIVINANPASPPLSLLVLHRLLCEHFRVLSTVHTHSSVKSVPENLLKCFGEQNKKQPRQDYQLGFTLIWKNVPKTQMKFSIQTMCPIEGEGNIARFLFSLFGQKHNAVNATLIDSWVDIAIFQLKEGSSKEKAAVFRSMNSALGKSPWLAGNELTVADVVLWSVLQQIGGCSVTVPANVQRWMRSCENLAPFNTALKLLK
Description: as §1, §2

[1] = system: H128 cells (SCLC cell line); assay: MTT viability of H128 cells; assay type: cell-based, human; conditions: MTT assay, FIG. 7
Method: By MTT assay, anticancer effects were confirmed based on viability of tumor cells. That is, cells were incubated in 0.5 mg/ml of MTT solution for 4 hours at a temperature of 37° C. for a reaction, and then, formazen products formed therefrom were dissolved in dimethyl sulfoxide (DMSO). Then, absorbance thereof was measured at 540 nm by using a spectrometer.

H446 xenograft = system: H446 xenograft
Method: DK (5 month-old, N=6) mice were administered with carrier, SLCB050 (5 or 10 mg/kg), Adriamycin (1, 2.5, or 5 mg/kg), and a combination of SLCB050 and Adriamycin by intraperitoneal (i.p.) injection. After termination of the experiment of each group, mice were dissected and isolated lung tissues. For xenograft, 1×10^7 H446 cells (ATCC) were seeded in nude ice. After 4 weeks, tumor bearing mice were injected with Adriamycin, […], or a combination thereof for 6 weeks. Every weeks, tumor volume and body weight were measured.

lung tumors of DK mice = assay: In vivo anticancer effect in DK mice (lung tumors); conditions: DK mice, non-toxic dose of Adriamycin, FIG. 10B
Method: All experimental procedures using laboratory animals were approved by the animal care committee of Pusan National University. DX2 (C57/BL6) and K-RasLA2 (C57/BL6) mice were obtained from Dr. Kim, Sung-Hoon and Professor. Choi, Kang-Ryeol (Yonsei University), respectively, and double Tg mice were obtained by cross-breeding of DX2 and K-RasLA2 mice. Before experiment, all mice were maintained under temperature- and light-controlled conditions (20-23° C., 12 h/12 h light/dark cycle), and provided autoclaved food and water.
Every weeks, tumor volume and body weight were measured.
After dissection of mice, tissues were fixed using 10% formalin (in PBS) for 24 hours, and embedded in paraffin blocks according to a basic tissue processing procedure. For histological analysis, embedded tissues were cut for […] by Leica microtome (Wetzlar, Germany) and transferred onto adhesive-coated slides (Marienfeld laboratory glassware, Germany). After deparaffin and rehydration, sections were then stained with H&E for routine examination.
For IHC staining, rehydrated tissue sections were incubated with antibodies to Ki-67 (Abcam, ab15580), pan-keratin (Sigma, C2931), pro-surfactant C (Millipore, AB3786), NSE (DAKO, IS612), and HER2/Neu (DAKO, A0458) for a reaction. Antigen retrieval was performed using 10 mM sodium citrate (pH 6.0) twice at a temperature of 95° C. for 10 minutes each, and endogenous peroxidase activity was blocked with 3% […] for 10 min. Then, the slides were dehydrated following a standard procedure and sealed with cover glass using mounting solution. TUNEL reaction was done as described in the manual for In Situ Cell Death Detection Kit, POD (Hoffmann-La Roche Ltd, Basel, Swizerland).
To evaluate tumor incidence, lung tissues of each mouse was fixed and embedded in paraffin. 5 sections from each mouse were examined by 3 independent investigator, who counted tumor. In addition, tumor area was calculated by tumor occupied area in total lung area using photoshop software.

T1 sequence (Q8N726 whole entry, the tested form may be a part): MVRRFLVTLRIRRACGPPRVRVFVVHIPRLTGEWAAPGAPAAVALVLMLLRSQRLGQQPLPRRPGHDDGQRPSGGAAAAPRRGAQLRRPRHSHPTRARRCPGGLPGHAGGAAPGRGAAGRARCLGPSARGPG
T1 sequence (P04637 whole entry, the tested form may be a part): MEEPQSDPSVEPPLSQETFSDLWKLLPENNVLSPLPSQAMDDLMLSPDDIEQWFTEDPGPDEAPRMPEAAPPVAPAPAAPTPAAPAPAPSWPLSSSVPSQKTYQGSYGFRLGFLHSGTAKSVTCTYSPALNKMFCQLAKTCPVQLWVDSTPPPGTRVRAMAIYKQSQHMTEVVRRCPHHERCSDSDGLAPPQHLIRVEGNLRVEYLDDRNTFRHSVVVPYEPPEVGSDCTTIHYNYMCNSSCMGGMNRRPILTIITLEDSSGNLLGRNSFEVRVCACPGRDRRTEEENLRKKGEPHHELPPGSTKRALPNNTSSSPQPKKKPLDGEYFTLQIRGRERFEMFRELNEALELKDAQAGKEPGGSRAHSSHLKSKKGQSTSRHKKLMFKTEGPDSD

Row | Compound | effect on interaction of p53-p14/ARF (p53-p14/ARF interaction) | inhibitory effect on DX2-p14/ARF binding (DX2-p14/ARF binding) | viability of H128 cells [1] | melting point [°C] | toxicity, Adriamycin alone (H446 xenograft; Adriamycin 5 mg/kg, three times/week) | tumor growth, Adriamycin alone (H446 xenograft; Adriamycin 5 mg/kg, three times/week, FIG. 9B) | response of H446 xenograft model (H446 xenograft; single agents, FIG. 9A) | anticancer effect, Adriamycin alone (lung tumors of DK mice)
1 | COc1cc(/C=C/C(=O)O[C@H]2Cc3cc4ccc(=O)oc4cc3OC2(C)C)ccc1O [SLCB36, reference compound] | did not show inhibitory effect on both binding | did not show inhibitory effect on both binding | did not significantly affect the cell viability |  |  |  |  | 
2 | CC1(C)Oc2cc3oc(=O)ccc3cc2C[C@@H]1OC(=O)N/C=C/c1ccco1 [HJH141206, (7S)-(+)-2-(Furan-2-yl)vinylcarbamic acid, 8,8-dimethyl-2-oxo-6,7-dihydro-2H, 8H-pyrano[3,2-g]chromen-7-yl-ester] | did not affect the interaction of p53-p14/ARF | showed inhibitory effects on DX2-p14/ARF binding | reduced the viability of H128 cells in a dose-dependent manner | 58.5 |  |  |  | 
3 | CC1(C)Oc2cc3oc(=O)ccc3cc2C[C@H]1OC(=O)N/C=C/c1ccco1 [HJH141204, (7R)-(−)-2-(Furan-2-yl)vinylcarbamic Acid, 8,8-dimethyl-2-oxo-6,7-dihydro-2H,8H-pyrano[3,2-g]chromen-7-yl-ester] | did not affect the interaction of p53-p14/ARF | showed inhibitory effects on DX2-p14/ARF binding | reduced the viability of H128 cells in a dose-dependent manner |  |  |  |  | 
4 | COc1cccc2c1C(=O)c1c(O)c3c(c(O)c1C2=O)C[C@@](O)(C(=O)CO)C[C@@H]3O[C@H]1C[C@H](N)[C@H](O)[C@H](C)O1 [Adriamycin, reference compound] |  |  |  |  | evoked rapid weight loss and death | tumor growth was suppressed within 4 weeks | resistant | did not show anticancer effect
